# Reference: patent US11214803B2, “Modulators of YAP1 expression” (Ionis Pharmaceuticals, Inc., priority 2019, dated 2022)
# Strand notation (5' to 3'): a small letter for the sugar, then the base; units joined by * are phosphorothioate-linked, units joined directly phosphodiester-linked; [ ] holds rarer units or linkages, { } end groups; capitals alone tell only the bases. k = constrained ethyl (cEt); [5mC] = 5-methylcytosine; d = 2'-deoxy (DNA)
# Test system: Yap1 mRNA
# Assay: Antisense inhibition of human Yap1 in A-431 cells by cEt gapmers, single dose (Example 2, RTS4814)
# Format: cell-based
# Settings: A-431 cells, 5,000 cells per well, free uptake, 2,000 nM modified oligonucleotide, approx. 48 hours, RTS4814, normalized to RIBOGREEN; Table 4; asterisk (*) = targets amplicon region of primer probe set
# How it was run: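 Each 16-nucleoside gapmer (ten-deoxy gap, three-cEt wings) is tested once at 2,000 nM in A-431 cells by free uptake. Yap1 mRNA after about 48 hours is measured by quantitative RT-PCR and expressed relative to untreated control.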
row,Substance,YAP1 (% UTC)
1,716535 (antisense k[5mC]*k[5mC]*kT*dG*dA*d[5mC]*dT*dG*dA*dA*dA*dA*dT*kA*kA*k[5mC]) [Compound 716535],86 % UTC
2,716517 (antisense kT*kT*k[5mC]*dA*d[5mC]*dA*dA*d[5mC]*d[5mC]*d[5mC]*d[5mC]*d[5mC]*d[5mC]*k[5mC]*k[5mC]*k[5mC]) [Compound 716517],53 % UTC
3,716529 (antisense k[5mC]*kA*kA*dA*d[5mC]*dT*d[5mC]*dA*dA*dA*dA*dA*dG*kG*kG*kA) [Compound 716529],61 % UTC

# Same assay, conditions: Table 6; A-431 cells, 5,000 cells per well, free uptake, 2,000 nM modified oligonucleotide, approx. 48 hours; RTS4814; normalized to RIBOGREEN; Yap1 mRNA relative to untreated control cells
row,Substance,YAP1 (% UTC)
1,716396 (k[5mC]*kA*kG*dT*dT*d[5mC]*dT*dT*dG*d[5mC]*dT*dG*dT*kT*kT*k[5mC]; antisense) [Compound 716396],123 % UTC
2,716408 (k[5mC]*kA*k[5mC]*dT*dG*dT*dA*dG*d[5mC]*dT*dG*d[5mC]*dT*k[5mC]*kA*kT; antisense) [Compound 716408],54 % UTC
3,716462 (kT*kT*kA*dA*dA*d[5mC]*dT*dA*d[5mC]*d[5mC]*dA*dG*dT*kG*kA*kA; antisense) [Compound 716462],86 % UTC

# Same assay, conditions: Table 18; A-431 cells, 5,000 cells per well, free uptake, 2,000 nM modified oligonucleotide, approx. 48 hours; RTS4814; normalized to RIBOGREEN; Yap1 mRNA as percent of untreated control
row,Substance,YAP1 (% UTC)
1,1074724 (antisense kG*kG*kG*dT*dA*dA*dA*dG*dG*dA*dA*dG*dA*kT*k[5mC]*kT) [Compound 1074724],22 % UTC

# Same assay, conditions: Table 19; A-431 cells, 5,000 cells per well, free uptake, 2,000 nM modified oligonucleotide, approx. 48 hours; RTS4814; normalized to RIBOGREEN; Yap1 mRNA as percent of untreated control
row,Substance,YAP1 (% UTC)
1,1075845 (kG*kT*kG*dG*dA*dA*dA*dA*dG*dT*dA*dT*dG*kA*kT*k[5mC]; antisense) [Compound 1075845],19 % UTC
2,1075685 (k[5mC]*kA*kT*dA*dA*dT*d[5mC]*dA*dA*dA*dG*dG*dG*kT*kG*k[5mC]; antisense) [Compound 1075685],60 % UTC
3,1075941 (kA*kG*kT*d[5mC]*dA*dA*dT*dA*dG*d[5mC]*dA*dA*dT*k[5mC]*kA*k[5mC]; antisense) [Compound 1075941],11 % UTC
4,1075621 (kG*kA*kT*dT*dA*dA*d[5mC]*dA*dT*dT*dG*dA*dT*kA*k[5mC]*kT; antisense) [Compound 1075621],61 % UTC

# Same assay, conditions: Table 20; Yap1 mRNA, percent of untreated control; 3-10-3 cEt gapmers targeting SEQ ID NO.: 1 and 2
row,Substance,YAP1 (% UTC)
1,1075366 (kA*k[5mC]*kA*d[5mC]*dG*dA*dA*dA*dA*dT*dA*dG*dT*kT*k[5mC]*kT; antisense) [Compound 1075366],27 % UTC
2,1075686 (kG*kT*kA*dA*dT*dT*dA*d[5mC]*dA*dG*dT*dG*dT*k[5mC]*kT*k[5mC]; antisense) [Compound 1075686],10 % UTC
3,1075494 (antisense kT*k[5mC]*kT*d[5mC]*dA*dA*d[5mC]*dA*dA*dT*dT*dT*dG*k[5mC]*kT*kA) [Compound 1075494],47 % UTC
4,1076422 (kG*kA*kA*dT*dT*dA*dT*dG*dA*d[5mC]*d[5mC]*dT*d[5mC]*k[5mC]*kA*kT; antisense) [Compound 1076422],13 % UTC
5,1076198 (k[5mC]*kT*kA*dT*dT*dA*dT*d[5mC]*dA*dA*dG*dG*dG*kA*kA*kT; antisense) [Compound 1076198],81 % UTC

# Same assay, conditions: Table 21; Yap1 mRNA, percent of untreated control; 3-10-3 cEt gapmers targeting SEQ ID NO.: 1 and 2
row,Substance,YAP1 (% UTC)
1,1075207 (antisense k[5mC]*kT*kA*dT*dT*dA*dA*dA*dT*dG*dA*dG*d[5mC]*kA*k[5mC]*k[5mC]) [Compound 1075207],4 % UTC
2,1074535 (antisense kG*kT*kA*dA*dT*dA*dG*d[5mC]*dT*d[5mC]*dT*dT*dT*k[5mC]*kT*kA) [Compound 1074535],5 % UTC
3,1075719 (k[5mC]*kT*kA*dA*dA*dA*d[5mC]*d[5mC]*dG*dG*d[5mC]*dT*dG*kG*kA*k[5mC]; antisense) [Compound 1075719],76 % UTC
4,1076391 (k[5mC]*kA*kA*dA*dT*dA*dT*dA*dG*dT*dT*dA*dG*k[5mC]*k[5mC]*kT; antisense) [Compound 1076391],22 % UTC

# Same assay, conditions: Table 22; Yap1 mRNA as percent of untreated control; 3-10-3 cEt gapmers; single dose
row,Substance,YAP1 (% UTC)
1,1075304 (k[5mC]*kA*k[5mC]*dG*dG*dG*dT*dA*d[5mC]*d[5mC]*dA*dG*dA*kA*kA*kA; antisense) [Compound 1075304],50 % UTC
2,1074184 (antisense kG*k[5mC]*k[5mC]*dG*dG*dT*dT*dG*dA*dG*dG*d[5mC]*dG*kG*k[5mC]*kG) [Compound 1074184],100 % UTC
3,1075080 (antisense kA*kT*kT*dA*d[5mC]*dA*dA*dA*dG*dA*d[5mC]*dA*dG*k[5mC]*k[5mC]*k[5mC]) [Compound 1075080],18 % UTC
4,1075560 (kG*k[5mC]*kT*dA*dA*dA*dT*dA*dA*dA*dG*dG*dT*kT*kA*k[5mC]; antisense) [Compound 1075560],86 % UTC
5,1075144 (antisense kA*k[5mC]*k[5mC]*d[5mC]*dT*dA*dT*dA*dT*d[5mC]*d[5mC]*dT*dA*kT*kA*kT) [Compound 1075144],82 % UTC

# Same assay, conditions: Table 23; Yap1 mRNA as percent of untreated control; 3-10-3 cEt gapmers; single dose
row,Substance,YAP1 (% UTC)
1,1075337 (kG*k[5mC]*kT*dT*dA*dT*dA*dT*d[5mC]*d[5mC]*dT*dG*dT*kA*kA*k[5mC]; antisense) [Compound 1075337],48 % UTC
2,1075849 (k[5mC]*kT*kA*dG*dA*dA*d[5mC]*dA*d[5mC]*dG*d[5mC]*dT*dG*kA*kT*kG; antisense) [Compound 1075849],55 % UTC
3,1075689 (k[5mC]*kA*kA*d[5mC]*dT*dA*dT*dA*d[5mC]*dA*dA*dG*dG*k[5mC]*kA*kA; antisense) [Compound 1075689],4 % UTC
4,1076329 (kA*kA*kT*dT*dA*dT*dA*d[5mC]*dT*dG*dG*d[5mC]*dT*kA*k[5mC]*kT; antisense) [Compound 1076329],14 % UTC
5,1075913 (k[5mC]*k[5mC]*k[5mC]*d[5mC]*dT*dA*dT*dA*d[5mC]*dT*dT*dT*dT*kT*kG*kA; antisense) [Compound 1075913],46 % UTC

# Same assay, conditions: Table 24; Yap1 mRNA as percent of untreated control; 3-10-3 cEt gapmers targeting SEQ ID NO.: 1, and 2
row,Substance,YAP1 (% UTC)
1,1075018 (antisense k[5mC]*k[5mC]*kT*dT*dA*dA*dA*dG*dT*dG*dA*dT*dA*k[5mC]*kA*k[5mC]) [Compound 1075018],29 % UTC
2,1074282 (antisense k[5mC]*kG*kA*dG*dG*dG*dT*d[5mC]*dA*dA*dG*d[5mC]*d[5mC]*kT*kT*kG) [Compound 1074282],83 % UTC

# Same assay, conditions: Table 25; Yap1 mRNA as percent of untreated control; 3-10-3 cEt gapmers targeting SEQ ID NO.: 1, and 2
row,Substance,YAP1 (% UTC)
1,1076363 (k[5mC]*kA*kT*dA*dA*dA*dA*dG*dT*d[5mC]*d[5mC]*dA*d[5mC]*kT*kA*kA; antisense) [Compound 1076363],72 % UTC
2,1074123 (antisense kG*k[5mC]*kT*dG*d[5mC]*dG*dA*dG*dG*d[5mC]*dA*d[5mC]*dT*k[5mC]*kG*kG) [Compound 1074123],72 % UTC
3,1075051 (antisense kA*kA*kT*dA*dA*dA*d[5mC]*dA*dA*d[5mC]*d[5mC]*d[5mC]*dA*kA*k[5mC]*kG) [Compound 1075051],56 % UTC

# Same assay, conditions: Table 32; Yap1 mRNA, percent of untreated control; 3-10-3 cEt gapmers targeting SEQ ID NO.: 1, and 2
row,Substance,YAP1 (% UTC)
1,1074482 (kT*kA*kA*dT*dA*dT*dG*dG*dT*d[5mC]*dA*dT*dT*kT*kG*k[5mC]; antisense) [compound 1074482],12 % UTC

# Same assay, conditions: Table 33; Yap1 mRNA, percent of untreated control; 3-10-3 cEt gapmers targeting SEQ ID NO.: 1, and 2
row,Substance,YAP1 (% UTC)
1,1074259 (antisense kT*k[5mC]*kA*dT*dA*dT*dT*d[5mC]*dT*dG*d[5mC]*dT*dG*k[5mC]*kA*k[5mC]) [compound 1074259],38 % UTC
2,1076147 (kA*kT*kT*dA*dA*d[5mC]*dT*d[5mC]*dA*d[5mC]*dG*dA*dA*kG*kA*k[5mC]; antisense) [compound 1076147],25 % UTC
3,1074611 (DNA kT*kA*kG*d[5mC]*dT*dT*dA*dT*dA*dT*dT*dG*dA*kA*kG*kA) [compound 1074611],19 % UTC
4,1074163 (k[5mC]*kA*kG*dG*d[5mC]*dG*dA*dG*d[5mC]*dG*dA*dG*dG*kG*k[5mC]*kT; antisense) [compound 1074163],118 % UTC

# Same assay, conditions: Yap1 mRNA as percent of untreated control; A-431 cells; 3-10-3 cEt gapmers targeting SEQ ID NO.: 1, and 2; Table 30
row,Substance,YAP1 (% UTC)
1,1075728 (k[5mC]*kT*kT*dT*dA*dT*d[5mC]*dG*dG*dA*dG*dG*d[5mC]*kT*kT*k[5mC]; antisense) [compound 1075728],15 % UTC
2,1074224 (antisense k[5mC]*kA*kG*dA*dG*dA*d[5mC]*dT*dA*d[5mC]*dT*d[5mC]*d[5mC]*kA*kG*kT) [compound 1074224],16 % UTC
3,1075280 (antisense kG*kA*kA*d[5mC]*dT*dA*dT*dA*d[5mC]*dT*dA*dA*d[5mC]*kA*kT*kT) [compound 1075280],57 % UTC
4,1075472 (kG*kA*kT*dT*dA*dT*dA*dG*dT*dT*dA*dA*dA*k[5mC]*kA*kG; antisense) [compound 1075472],92 % UTC

# Same assay, conditions: Yap1 mRNA as percent of untreated control; A-431 cells; 3-10-3 cEt gapmers targeting SEQ ID NO.: 1, and 2; Table 31
row,Substance,YAP1 (% UTC)
1,1076497 (kA*kA*kA*dG*dA*dA*dT*dA*d[5mC]*d[5mC]*dA*dA*d[5mC]*k[5mC]*kT*kG; antisense) [compound 1076497],72 % UTC
2,1074289 (antisense kT*kG*kA*d[5mC]*dT*dG*dA*dT*dT*d[5mC]*dT*d[5mC]*dT*kG*kG*kT) [compound 1074289],13 % UTC
